≈ marks a conversion by molar mass, not a printed value. Each block holds one compound with its values, some of them ahead of it.
What was measured:
Assay in all cases: ≥ marks a high value that may be exact or a test limit, other limits are often not marked, values filed in µg/mL are converted to µM
[1] = tested on: Bacillus megaterium ATCC 19213
[2] = tested on: Bacillus subtilis NBRC 3513
[3] = tested on: Enterococcus faecalis NBRC 3989
[4] = tested on: Escherichia coli NBRC 12734
[5] = tested on: Klebsiella pneumoniae NBRC 3317
[6] = tested on: Pseudomonas aeruginosa NBRC 3080
[7] = tested on: Salmonella typhimurium NBRC 12529
[8] = tested on: Serratia marcescens NBRC 3046
[9] = tested on: Staphylococcus aureus NBRC 12732
[10] = tested on: Staphylococcus epidermidis NBRC 12933
[11] = tested on: Bacillus subtilis PCI 219
[12] = tested on: Escherichia coli NIHJ JC-2
[13] = tested on: Pseudomonas aeruginosa U-31
[14] = tested on: Staphylococcus aureus FDA 209P
[15] = tested on: Aspergillus fumigatus IOC 4526
[16] = tested on: Candida albicans ATCC 36802
[17] = tested on: Candida albicans IOC 4558
[18] = tested on: Candida glabrata IOC 4565
[19] = tested on: Candida krusei IOC 4559
[20] = tested on: Candida parapsilosis IOC 4564
[21] = tested on: Candida tropicalis IOC 4560
[22] = tested on: Cryptococcus neoformans ATCC 90112
[23] = tested on: Cryptococcus neoformans IOC 4528
[24] = tested on: Escherichia coli SBS 363
[25] = tested on: Micrococcus luteus A270
[26] = tested on: Pseudomonas aeruginosa ATCC 27853
[27] = tested on: Staphylococcus aureus ATCC 29213
[28] = tested on: Trichophyton rubrum IOC 4527
[29] = tested on: Trichosporon sp. IOC 4569
[30] = tested on: Carnobacterium mobile
[31] = tested on: Fusarium oxysporum
[32] = tested on: Candida albicans ATCC 37092
[33] = tested on: Escherichia coli ATCC 25922
[34] = tested on: Escherichia coli HB101
[35] = tested on: Escherichia coli ML-35
[36] = tested on: Salmonella enterica subsp. enterica serovar Typhimurium ATCC 14028
[37] = tested on: Serratia marcescens ATCC 8100
[38] = tested on: Staphylococcus aureus ATCC 25923
[39] = tested on: Micrococcus luteus NBRC 12708

SMILES: CSCC[C@H](NC(=O)[C@@H](N)CCCCN)C(=O)N[C@@H](CC(=O)O)C(=O)N[C@@H](CO)C(=O)N[C@@H](CCCN=C(N)N)C(=O)N[C@@H](Cc1c[nH]c2ccccc12)C(=O)N[C@@H](CCCN=C(N)N)C(=O)N[C@@H](Cc1c[nH]c2ccccc12)C(=O)N[C@@H](CCCCN)C(=O)N[C@@H](CO)C(=O)N[C@@H](CO)C(=O)N[C@@H](CCCCN)C(=O)N[C@@H](CCCCN)C(=O)O [KMDSRWRWKSSKK]
MIC [15]: ≥ 58 µM
MIC [16]: ≥ 58 µM
MIC [17]: ≥ 46.4 µM
MIC [18]: ≥ 46.4 µM
MIC [19]: ≥ 32.8 µM
MIC [20]: ≥ 46.4 µM
MIC [21]: ≥ 46.4 µM
MIC [22]: 4.92 µM (≈ 8.49 µg/mL)
MIC [23]: 4.92 µM (≈ 8.49 µg/mL)
MIC [24]: ≥ 46.4 µM
MIC [25]: 4.92 µM (≈ 8.49 µg/mL)
MIC [26]: 16.4 µM (≈ 28.3 µg/mL)
MIC [27]: > 23.2 µM
MIC [28]: ≥ 58 µM
MIC [29]: ≥ 32.8 µM

SMILES: CC[C@H](C)[C@H](NC(=O)[C@H](CCCN=C(N)N)NC(=O)[C@@H](N)CCCN=C(N)N)C(=O)N[C@@H](CCCN=C(N)N)C(=O)N1CCC[C@H]1C(=O)N[C@@H](CCCN=C(N)N)C(=O)N1CCC[C@H]1C(=O)N1CCC[C@H]1C(=O)N[C@@H](CCCN=C(N)N)C(=O)N[C@@H](CC(C)C)C(=O)N1CCC[C@H]1C(=O)N[C@@H](CCCN=C(N)N)C(=O)N1CCC[C@H]1C(=O)N[C@@H](CCCN=C(N)N)C(=O)N1CCC[C@H]1C(=O)O [RRIRPRPPRLPRPRP]
MIC [32]: 28.8 µM (≈ 55.3 µg/mL)
MIC [33]: 45.3 µM (≈ 86.9 µg/mL)
MIC [34]: 16 µM (≈ 30.7 µg/mL)
MIC [35]: ≥ 128 µM
MIC [36]: 128 µM (≈ 246 µg/mL)
MIC [37]: ≥ 128 µM
MIC [38]: > 128 µM
MIC [27]: > 500 µM

SMILES: CC[C@H](C)[C@@H]1NC(=O)[C@H](C)NC(=O)[C@H](CC(C)C)NC(=O)[C@@H]2CSSC[C@@H](C(=O)N[C@@H](CCCN=C(N)N)C(=O)N[C@@H](CCCN=C(N)N)C(=O)O)NC(=O)[C@H](C(C)C)NC(=O)[C@@H]3CSSC[C@H](NC(=O)[C@H](CC(C)C)NC(=O)[C@H](CO)NC(=O)[C@H](Cc4cnc[nH]4)NC(=O)[C@H](CC(N)=O)NC(=O)[C@H](C)NC(=O)[C@H](C)NC(=O)[C@H](Cc4ccccc4)NC(=O)CNC(=O)[C@H](CCCCN)NC(=O)[C@H](C)NC(=O)[C@H](CCC(=O)O)NC(=O)[C@H](Cc4ccccc4)NC(=O)[C@H](CO)NC(=O)[C@H](CC(C)C)NC(=O)[C@H](CC(C)C)NC(=O)[C@H](CC(=O)O)NC(=O)[C@@H](NC(=O)[C@@H](NC(=O)[C@@H](N)CC(C)C)[C@@H](C)O)CSSC[C@H](NC(=O)[C@H](C)NC(=O)CNC(=O)CNC(=O)[C@H](CCCCN)NC(=O)[C@H](CCCN=C(N)N)NC(=O)CNC1=O)C(=O)N[C@@H](CCC(N)=O)C(=O)N[C@@H](CC(N)=O)C(=O)NCC(=O)N[C@@H](C(C)C)C(=O)N3)C(=O)N[C@@H](C)C(=O)N[C@@H](C)C(=O)N[C@@H](Cc1cnc[nH]1)C(=O)N2 [LTCDLLSFEAKGFAANHSLCAAHCLAIGRKGGACQNGVCVCRR]
MIC [39]: 1.12 µM
MIC [9]: 0.112 µM

The next lines start with the values.

MIC [1]: 4 µM (≈ 9.37 µg/mL)
MIC [2]: 8 µM (≈ 18.7 µg/mL)
MIC [3]: ≥ 128 µM
MIC [4]: ≥ 128 µM
MIC [5]: ≥ 128 µM
MIC [6]: ≥ 128 µM
MIC [7]: ≥ 128 µM
MIC [8]: ≥ 128 µM
MIC [9]: 2 µM (≈ 4.69 µg/mL)
MIC [10]: 16 µM (≈ 37.5 µg/mL)
SMILES: CC[C@H](C)[C@H](NC(=O)[C@H](C)N)C(=O)N[C@@H](Cc1ccccc1)C(=O)N[C@H](C(=O)N[C@@H](Cc1ccccc1)C(=O)N[C@H](C(=O)N[C@@H](CCCN=C(N)N)C(=O)N[C@@H](Cc1c[nH]c2ccccc12)C(=O)N[C@@H](CC(C)C)C(=O)N[C@@H](CC(C)C)C(=O)N[C@@H](CCCCN)C(=O)N[C@@H](CC(C)C)C(=O)NCC(=O)N[C@@H](Cc1cnc[nH]1)C(=O)N[C@@H](Cc1cnc[nH]1)C(=O)NCC(=O)N[C@@H](CCCN=C(N)N)C(=O)N[C@@H](C)C(=O)N1CCC[C@H]1C(=O)N1CCC[C@H]1C(=O)O)[C@@H](C)CC)[C@@H](C)CC [AIFIFIRWLLKLGHHGRAPP]

MIC [11]: ≥ 44.8 µM
MIC [12]: ≥ 44.8 µM
MIC [13]: ≥ 44.8 µM
MIC [14]: ≥ 44.8 µM
SMILES: CC(C)C[C@H](NC(=O)[C@H](CC(C)C)NC(=O)[C@H](CCCCN)NC(=O)[C@H](CC(C)C)NC(=O)[C@H](CC(C)C)NC(=O)[C@H](CCCCN)NC(=O)[C@H](CCCCN)NC(=O)[C@H](Cc1c[nH]c2ccccc12)NC(=O)[C@H](CC(C)C)NC(=O)[C@H](CCCCN)NC(=O)[C@H](CC(C)C)NC(=O)[C@H](CC(C)C)NC(=O)[C@H](CC(C)C)NC(=O)[C@H](CCCCN)NC(=O)[C@H](CC(C)C)NC(=O)[C@H](CC(C)C)NC(=O)[C@@H](N)CCCCN)C(=O)N[C@@H](CCCCN)C(=O)O [KLLKLLLKLWKKLLKLLK]

MIC [30]: 0.0025 µM (≈ 0.00534 µg/mL)
MIC [31]: 0.1 µM (≈ 0.214 µg/mL)
SMILES: CSCC[C@H](N)C(=O)N[C@@H](C)C(=O)N[C@@H](C)C(=O)N[C@@H](CCCN=C(N)N)C(=O)N[C@@H](C)C(=O)N[C@@H](C)C(=O)N[C@@H](CCCN=C(N)N)C(=O)N[C@@H](CC(C)C)C(=O)N[C@@H](C)C(=O)N[C@@H](C)C(=O)N[C@@H](CCCN=C(N)N)C(=O)N[C@@H](CC(C)C)C(=O)N[C@@H](C)C(=O)N[C@@H](CCCN=C(N)N)C(=O)N[C@@H](CC(C)C)C(=O)N[C@@H](C)C(=O)N[C@@H](CC(C)C)C(=O)N[C@@H](CCCN=C(N)N)C(=O)N[C@@H](C)C(=O)N[C@@H](CC(C)C)C(=O)O [MAARAARLAARLARLALRAL]
